Measured values as given in US4658029A, “1-Hpyrazolo[3,4-b]pyridines” (Hoechst-Roussel Pharmaceuticals Inc., priority 1986, dated 1987).

tested on: spontaneous hypertensive rat; assay: Antihypertensive activity in the spontaneous hypertensive rat (SHR), indirect tail cuff method; format: in vivo; conditions: 50 mg/kg, PO, treated orally for three days, drop measured on third day
Method: The 6H-isoxazolo[5,4-d]pyrazolo[…] of formula I of the present invention are useful as antihypertensive agents due to their ability to depress blood pressure in mammals. Antihypertensive activity is measured in the spontaneous hypertensive rat by the indirect tail cuff method described in "Methods in Pharmacology", A. Schwartz, Ed., Vol. I, Appleton-Century Crofts, New York, N.Y., 1971, p. 135. In this procedure a group of five animals are treated orally for three days with the test compound in relation to a control group of the same number. The drop in blood pressure is measured on the third day following administration. The antihypertensive activities of some of the compounds, expressed as a decrease in mean arterial blood pressure (in mmHg), are given in Table I.

Row | Compound | Antihypertensive SHR (decrease in mean arterial blood pressure)
1 | C[C@](N)(Cc1ccc(O)c(O)c1)C(=O)O [alpha-Methyldopa, reference compound] | 40 mmHg
2 | CCn1ncc2c3onc(-c4cccc(C)c4)c3cnc21 [6-Ethyl-3-(3-tolyl)-6H-isoxazolo[5,4-d]pyrazolo[3,4-b]pyridine] | 33 mmHg
3 | CCn1ncc2c3onc(-c4ccc(OC)cc4)c3cnc21 [6-Ethyl-3-(4-methoxyphenyl)-6H-isoxazolo[5,4-d]pyrazolo[3,4-b]pyridine] | 31 mmHg
4 | CCn1ncc2c3onc(-c4ccc(Cl)cc4)c3cnc21 [3-(4-Chlorophenyl)-6-ethyl-6H-isoxazolo[5,4-d]pyrazolo[3,4-b]pyridine] | 62 mmHg

tested on: 2-phenyl-1,4-benzoquinone-induced writhing; assay: 2-phenyl-1,4-benzoquinone-induced writhing test in mice (analgesic activity, PQW); format: in vivo; conditions: 20 mg/kg, SC

Row | Compound | Analgesic PQW, % decrease (phenylquinone writhing)
5 | CCn1ncc2c3onc(-c4ccccn4)c3cnc21 [6-Ethyl-3-(2-pyridyl)-6H-isoxazolo[5,4-d]pyrazolo[3,4-b]pyridine] | 42%
6 | CCn1ncc2c3onc(-c4cccc(O)c4)c3cnc21 [6-Ethyl-3-(3-hydroxyphenyl)-6H-isoxazolo[5,4-d]pyrazolo[3,4-b]pyridine] | 48%
7 | CCn1ncc2c3onc(-c4cccc(F)c4)c3cnc21 [6-Ethyl-3-(3-fluorophenyl)-6H-isoxazolo[5,4-d]pyrazolo[3,4-b]pyridine] | 55%
8 | CCn1ncc2c3onc(-c4ccc(F)cc4)c3cnc21 [6-Ethyl-3-(4-fluorophenyl)-6H-isoxazolo[5,4-d]pyrazolo[3,4-b]pyridine] | 31%
9 | 6-Ethyl-3-tolyl-6H-isoxazolo[5,4-d]pyrazolo[3,4-b]pyridine | 48%

same assay, conditions: Mus musculus, sc, prior art compound, read-out: ED50 (phenylquinone writhing)

Row | Compound | ED50
10 | CCC(=O)O[C@](Cc1ccccc1)(c1ccccc1)[C@H](C)CN(C)C [Propoxyphene, reference compound] | 3.9 mg/kg
